Reference: PubChem BioAssay AID2060505 (Molecular Pharmacology Branch, DTP, NCI, 2025)
pIC50: −log10 of the molar value.

Tested on: 633275-114-R-J1-PDC complex spheroids, viability
Assay: Anticancer human tumor 633275-114-R-J1-PDC patient-derived endometrial adenocarcinoma cell line growth inhibition [GQUAD]
Details: for pIC50: curve of first compound; for viability, T/C: stronger effect = lower value; active = viability on the fitted dose curve at most 10% of control; inactive = the rest
Description: DNA G-quadruplex Stabilizer Agents in Combinations in Complex Spheroids
A high-throughput screen of multi-cell type tumor spheroids was designed to identify active combinations of DNA G-quadruplex stabilizer agents and targeted small molecules. Complex spheroids include a stromal component modeled by human endothelial cells (HUVEC) and fibroblasts modeled by human mesenchymal stem cells (MSCs). The concentration ranges selected for each drug and investigational agent were based upon clinically achievable concentrations if the clinical Cmax of the agent was known.
Compounds. The drugs and investigational agents: pidnarulex (CX-5461; NSC782164), APTO-253 (NSC789042), BRACO-19 (NSC847499), peposertib (NSC802822), ceralasertib (NSC780249), elimusertib (NSC800525), camonsertib (NSC841442), AZD-1390 (NSC803789), olaparib (NSC753686), talazoparib (NSC767125), ART-558 (NSC835418), sotorasib (NSC818433), MRTX-1133 (NSC836407), SN-38 (NSC673596), topotecan (NSC609699), etoposide (NSC141540), doxorubicin (NSC123127), gemcitabine (NSC613327), 5-fluorouracil (NSC19893), paclitaxel (NSC125973), vemurafenib (NSC761431), panobinostat (NSC761190), R-306465 (JNJ-16241199; NSC773264), adavosertib (NSC754352), TP-3654 (NSC805149), carboplatin (NSC241240), KSQ-4279 (NSC840948), and staurosporine (NSC755774) were obtained from the National Cancer Institute (NCI) Developmental Therapeutics Program Chemical Repository (34). The FDA-approved anticancer drug set is available from the NCI Developmental Therapeutics Program. […] The stock solutions were prepared in dimethyl sulfoxide (DMSO, Sigma-Aldrich, St. Louis, MO, cat. D2650) at 800-fold the tested concentration and stored at -70 degrees C prior to their use. All drugs and investigational agents were tested over a range starting from a high concentration at or near the clinical Cmax and decreasing in half-log increments. If the clinical Cmax for an agent had not been determined, the highest concentration tested was 10 microM.
2.3 Cell Culture. All cells were maintained in an incubator at 37 degrees C and 5% CO2 with 95% humidity. The PDC lines were cultured according to standard operating procedures established by the NCI PDMR. All PDCs were thawed and cultured in Matrigel-coated flasks prepared with a working solution of 1X Ham's F-12 nutrient mix, without supplementation (Invitrogen, cat. 11765054), 100 U/mL penicillin-streptomycin (Invitrogen, cat. 15140122), and 2.5% Matrigel (Corning Inc., cat. 354248) for the first three passages. The 857933-349-R-J2-PDC line was cultured in 6C/Colon 1B media, which includes advanced DMEM/F-12 (Thermo Fisher Scientific, cat. 12634028), 10 mM HEPES (Thermo Fisher Scientific, cat. 15630080), 1X GlutaMAX supplement (Thermo Fisher Scientific, cat. 35050061), 0.1 mg/mL primocin (InvivoGen, cat. ant-pm-2), 10% defined fetal bovine serum, heat inactivated (HyClone Laboratories Inc., cat. SH30070.03HI), 50% L-WRN conditioned media (ATCC, cat. CRL-3276), 1.25 mM N-Acetyl-L-cysteine (Sigma-Aldrich, cat. A9165), 10 mM nicotinamide (Sigma-Aldrich, cat. N0636), 1X B-27 supplement (Thermo Fisher Scientific, cat. 17504044), 1X N-2 supplement (Thermo Fisher Scientific, cat. 17502048), 10 microM Y-27632 dihydrochloride (Tocris Bioscience, cat. 1254), and 50 ng/mL human EGF recombinant protein (Thermo Fisher Scientific, cat. PHG0311). The 485176-168-R4-J1-PDC line was cultured in Panc media, which includes all 6C/Colon 1B media components plus 100 ng/mL human FGF-10 (Thermo Fisher Scientific, cat. 100-26), 500 nM SB-431542 (Selleckchem, cat. S1067), and gastrin (Tocris, cat. 3006).
[…]
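Also: spheroids exposed to the agents for seven days.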
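For viability, T/C in this document: percent of DMSO vehicle control viability which is 100%.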

Cc1cccc(N(C)C(=O)C2C(O)CCN2c2nc(C)cc(C(F)(F)F)c2C#N)c1 (configuration not stated) + CN(C)c1ccc(Nc2c3ccc(NC(=O)CCN4CCCC4)cc3nc3cc(NC(=O)CCN4CCCC4)ccc23)cc1
inactive: viability, T/C (second compound 0.0316 µM, first compound 0.0316 µM) 102% | viability, T/C (second compound 0.0316 µM, first compound 0.1 µM) 99.2% | viability, T/C (second compound 0.0316 µM, first compound 0.316 µM) 105% | viability, T/C (second compound 0.0316 µM, first compound 1 µM) 105% | viability, T/C (second compound 0.0316 µM, first compound 3.16 µM) 96.3% | viability, T/C (second compound 0.0316 µM, first compound 10 µM) 104% | viability, T/C (second compound 0.1 µM, first compound 0.0316 µM) 107% | viability, T/C (second compound 0.1 µM, first compound 0.1 µM) 103% | viability, T/C (second compound 0.1 µM, first compound 0.316 µM) 104% | viability, T/C (second compound 0.1 µM, first compound 1 µM) 99.5% | viability, T/C (second compound 0.1 µM, first compound 3.16 µM) 101% | viability, T/C (second compound 0.1 µM, first compound 10 µM) 97.8% | viability, T/C (second compound 0.316 µM, first compound 0.0316 µM) 99.3% | viability, T/C (second compound 0.316 µM, first compound 0.1 µM) 94.4% | viability, T/C (second compound 0.316 µM, first compound 0.316 µM) 101% | viability, T/C (second compound 0.316 µM, first compound 1 µM) 91% | viability, T/C (second compound 0.316 µM, first compound 3.16 µM) 94% | viability, T/C (second compound 0.316 µM, first compound 10 µM) 85.3% | viability, T/C (second compound 1 µM, first compound 0.0316 µM) 96.2% | viability, T/C (second compound 1 µM, first compound 0.1 µM) 96.6% | viability, T/C (second compound 1 µM, first compound 0.316 µM) 97.6% | viability, T/C (second compound 1 µM, first compound 1 µM) 99.5% | viability, T/C (second compound 1 µM, first compound 3.16 µM) 94.6% | viability, T/C (second compound 1 µM, first compound 10 µM) 87.1% | viability, T/C (second compound 3.16 µM, first compound 0.0316 µM) 88.8% | viability, T/C (second compound 3.16 µM, first compound 0.1 µM) 84.8% | viability, T/C (second compound 3.16 µM, first compound 0.316 µM) 95.5% | viability, T/C (second compound 3.16 µM, first compound 1 µM) 82.4% | viability, T/C (second compound 3.16 µM, first compound 3.16 µM) 69.2% | viability, T/C (second compound 3.16 µM, first compound 10 µM) 47% | viability, T/C (second compound 10 µM, first compound 0.0316 µM) 30.5% | viability, T/C (second compound 10 µM, first compound 0.1 µM) 34.7% | viability, T/C (second compound 10 µM, first compound 0.316 µM) 28% | viability, T/C (second compound 10 µM, first compound 1 µM) 29.6% | viability, T/C (second compound 10 µM, first compound 3.16 µM) 28.2% | viability, T/C (second compound 10 µM, first compound 10 µM) 16.1%
< 5.00: pIC50 (second compound 0.0316 µM) | pIC50 (second compound 0.1 µM) | pIC50 (second compound 0.316 µM) | pIC50 (second compound 1 µM)
> 7.50: pIC50 (second compound 10 µM)
5.07: pIC50 (second compound 3.16 µM)
